Test results reported in patent US7811797B2, “α-isomaltosylglucosaccharide-forming enzyme, process and uses of the same” (Kabushiki Kaisha Hayashibara Seibutsu Kagaku Kenkyujo, priority 2000, dated 2010).

Columns and labels:
Parameters in all cases: key: −: it showed no change; +: it showed a slight reduction of the color spot of the substrate and the formation of other reaction product; ++: it showed a high reduction of the color spot of the substrate and the formation of other reaction product; +++: it showed a substantial disappearance of the substrate spot and the formation of other reaction product
[1] = system: α-isomaltosylglucosaccharide-forming enzyme; test: Action on saccharides (substrates), Enzyme of Strain C9; format: biochemical, Bacillus globisporus C9; conditions: two units/g substrate, substrate 2% (w/v), 30° C., pH 6.0, 24 hours, TLC
Method: (§1) It was tested whether saccharides can be used as substrates for the α-isomaltosylglucosaccharide-forming enzyme. For the purpose, a solution of maltose, maltotriose, maltotetraose, maltopentaose, maltohexaose, maltoheptaose, isomaltose, isomaltotriose, panose, isopanose, trehalose, kojibiose, nigerose, neotrehalose, cellobiose, gentibiose, maltitol, maltotriitol, lactose, sucrose, erlose, selaginose, maltosyl glucoside, or isomaltosyl glucoside was prepared.
(§2) To each of the above solutions was added two units/g substrate of a purified specimen of α-isomaltosylglucosaccharide-forming enzyme from either Bacillus globisporus C9 obtained by the method in Experiment 4-2, Bacillus globisporus C11 obtained by the method in Experiment 7-2, Bacillus globisporus N75 obtained by the method in Experiment 11-2, or Arthrobacter globiformis A19 obtained by the method in Experiment 15-2, and the resulting each solution was adjusted to give a substrate concentration of 2% (w/v) and incubated at 30° C. and pH 6.0, except for using pH 8.4 for the enzyme from Arthrobacter globiformis A19, for 24 hours. The enzyme solutions before and after the enzymatic reactions were respectively analyzed on TLC disclosed in Experiment 1 to confirm whether the enzymes acted on these substrates.

[2] = system: α-isomaltosylglucosaccharide-forming enzyme; test: Action on saccharides (substrates), Enzyme of Strain C11; format: biochemical, Bacillus globisporus C11; conditions: two units/g substrate, substrate 2% (w/v), 30° C., pH 6.0, 24 hours, TLC
Method: as §1, §2

[3] = system: α-isomaltosylglucosaccharide-forming enzyme; test: Action on saccharides (substrates), Enzyme of Strain N75; format: biochemical, Bacillus globisporus N75; conditions: two units/g substrate, substrate 2% (w/v), 30° C., pH 6.0, 24 hours, TLC
Method: as §1, §2

[4] = system: α-isomaltosylglucosaccharide-forming enzyme; test: Action on saccharides (substrates), Enzyme of Strain A19; format: biochemical, Arthrobacter globiformis A19; conditions: two units/g substrate, substrate 2% (w/v), 30° C., pH 8.4, 24 hours, TLC
Method: as §1, §2

Compound | Enzymatic action, Enzyme of Strain C9 [1] | Enzymatic action, Enzyme of Strain C11 [2] | Enzymatic action, Enzyme of Strain N75 [3] | Enzymatic action, Enzyme of Strain A19 [4]
OC[C@H]1O[C@@](CO)(O[C@H]2O[C@H](CO)[C@@H](O[C@H]3O[C@H](CO)[C@@H](O)[C@H](O)[C@H]3O)[C@H](O)[C@H]2O)[C@@H](O)[C@@H]1O [Erlose] | + | + | + | +
OC[C@H]1O[C@H](O[C@H]2[C@H](O)[C@@H](O)[C@@H](OC[C@H]3OC(O)[C@H](O)[C@@H](O)[C@@H]3O)O[C@@H]2CO)[C@H](O)[C@@H](O)[C@@H]1O (stereo partly shown) [Isopanose] | ++ | ++ | ++ | ++
OC[C@H]1O[C@H](O[C@H]2C(O)O[C@H](CO)[C@@H](O)[C@@H]2O)[C@H](O)[C@@H](O)[C@@H]1O (stereo partly shown) [Kojibiose] | + | + | + | +
OC[C@H]1O[C@H](O[C@H]2[C@H](O)[C@@H](O)[C@H](O)O[C@@H]2CO)[C@H](O)[C@@H](O)[C@@H]1O [Maltose] | + | + | + | +
OC[C@H]1O[C@H](O[C@H]2O[C@H](CO)[C@@H](O[C@H]3O[C@H](CO)[C@@H](O)[C@H](O)[C@H]3O)[C@H](O)[C@H]2O)[C@H](O)[C@@H](O)[C@@H]1O [Maltosyl glucoside] | ++ | ++ | ++ | ++
OC[C@H]1O[C@H](O[C@H]2[C@H](O)[C@@H](O)[C@@H](O[C@H]3[C@H](O)[C@@H](O)[C@@H](O[C@H]4[C@H](O)[C@@H](O)C(O)O[C@@H]4CO)O[C@@H]3CO)O[C@@H]2CO)[C@H](O)[C@@H](O)[C@@H]1O (stereo partly shown) [Maltotetraose] | +++ | +++ | +++ | +++
OC[C@@H](O)[C@@H](O[C@H]1O[C@H](CO)[C@@H](O[C@H]2O[C@H](CO)[C@@H](O)[C@H](O)[C@H]2O)[C@H](O)[C@H]1O)[C@H](O)[C@@H](O)CO [Maltotriitol] | + | + | + | +
OC[C@H]1O[C@@H](O[C@H]2O[C@H](CO)[C@@H](O)[C@H](O)[C@H]2O)[C@H](O)[C@@H](O)[C@@H]1O [Neotrehalose] | + | + | + | +
OC[C@H]1O[C@H](O[C@H]2[C@H](O)[C@@H](CO)OC(O)[C@@H]2O)[C@H](O)[C@@H](O)[C@@H]1O (stereo partly shown) [Nigerose] | + | + | + | +
OC[C@H]1O[C@H](OC[C@H]2O[C@H](O[C@H]3[C@H](O)[C@@H](O)C(O)O[C@@H]3CO)[C@H](O)[C@@H](O)[C@@H]2O)[C@H](O)[C@@H](O)[C@@H]1O (stereo partly shown) [Panose] | − | − | − | −
OC[C@H]1O[C@H](O[C@H]2O[C@H](CO)[C@@H](O)[C@H](O)[C@H]2O[C@H]2O[C@H](CO)[C@@H](O)[C@H](O)[C@H]2O)[C@H](O)[C@@H](O)[C@@H]1O [Selaginose] | − | − | − | −
Isomaltosyl glucoside | − | − | − | −
Maltoheptaose | +++ | +++ | +++ | +++
Maltohexaose | +++ | +++ | +++ | +++
Maltopentaose | +++ | +++ | +++ | +++
Maltotriose | ++ | ++ | ++ | ++
